# Tests used:
# Assay in all cases: relative viability (nuclei count vs DMSO), 5 days (fraction); higher = more cells survive
# Selisistat + Olaparib = compound: C1CC(C2=C(C1)C3=C(N2)C=CC(=C3)Cl)C(=O)N [Selisistat] + O=C(c1cc(Cc2n[nH]c(=O)c3ccccc23)ccc1F)N1CCN(C(=O)C2CC2)CC1 [Olaparib] (partner 8 µM)
# Summary of the method: (§1)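 Values are medians from duplicate plates. Each reflects relative viability, defined as the nuclei count of treated wells over that of vehicle wells. Lung cancer cell lines in 1536-well plates were pin-tool dosed one day after seeding with one drug alone or with a fixed anchor-drug dose plus five library-drug doses (not always all listed) in √10 steps, then fixed, stained and imaged at 4× after 5 days.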
# Selisistat + Pemetrexed = compound: C1CC(C2=C(C1)C3=C(N2)C=CC(=C3)Cl)C(=O)N [Selisistat] + Nc1nc2[nH]cc(CCc3ccc(C(=O)N[C@@H](CCC(=O)O)C(=O)O)cc3)c2c(=O)[nH]1 [Pemetrexed] (partner 0.2 µM)
# Summary of the method: as §1
# Serdemetan + Vorinostat = compound: c1ccc2c(CCNc3ccc(Nc4ccncc4)cc3)c[nH]c2c1 [Serdemetan] + O=C(CCCCCCC(=O)Nc1ccccc1)NO [Vorinostat] (partner 1 µM)
# Summary of the method: as §1
# Serdemetan + Pictilisib = compound: c1ccc2c(CCNc3ccc(Nc4ccncc4)cc3)c[nH]c2c1 [Serdemetan] + CS(=O)(=O)N1CCN(Cc2cc3nc(-c4cccc5[nH]ncc45)nc(N4CCOCC4)c3s2)CC1 [Pictilisib] (partner 1 µM)
# Summary of the method: as §1
cell line,measurement,setting,value
LCLC-97TM1,relative viability,Selisistat + Olaparib; first compound 0.4 µM,0.488
same,relative viability,Selisistat + Olaparib; first compound 1.265 µM,0.304
same,relative viability,Selisistat + Olaparib; first compound 12.65 µM,0.285
same,relative viability,Selisistat + Olaparib; first compound 40 µM,0.366
same,relative viability,Selisistat + Pemetrexed; first compound 0.4 µM,0.153
same,relative viability,Selisistat + Pemetrexed; first compound 1.265 µM,0.177
same,relative viability,Selisistat + Pemetrexed; first compound 12.65 µM,0.155
same,relative viability,Selisistat + Pemetrexed; first compound 40 µM,0.206
same,relative viability,Serdemetan + Vorinostat; first compound 0.04 µM,0.803
same,relative viability,Serdemetan + Vorinostat; first compound 0.1265 µM,0.713
same,relative viability,Serdemetan + Vorinostat; first compound 0.4 µM,0.667
same,relative viability,Serdemetan + Vorinostat; first compound 1.265 µM,0.433
same,relative viability,Serdemetan + Vorinostat; first compound 4 µM,0.398
same,relative viability,Serdemetan + Pictilisib; first compound 0.04 µM,0.214
same,relative viability,Serdemetan + Pictilisib; first compound 0.1265 µM,0.22
same,relative viability,Serdemetan + Pictilisib; first compound 0.4 µM,0.183
same,relative viability,Serdemetan + Pictilisib; first compound 1.265 µM,0.143
same,relative viability,Serdemetan + Pictilisib; first compound 4 µM,0.124
LCLC-103H,relative viability,Selisistat + Olaparib; first compound 0.4 µM,0.814
same,relative viability,Selisistat + Olaparib; first compound 1.265 µM,0.798
same,relative viability,Selisistat + Olaparib; first compound 4 µM,0.78
same,relative viability,Selisistat + Olaparib; first compound 12.65 µM,0.724
same,relative viability,Selisistat + Olaparib; first compound 40 µM,0.833
same,relative viability,Selisistat + Pemetrexed; first compound 0.4 µM,0.42
same,relative viability,Selisistat + Pemetrexed; first compound 1.265 µM,0.473
same,relative viability,Selisistat + Pemetrexed; first compound 4 µM,0.469
same,relative viability,Selisistat + Pemetrexed; first compound 12.65 µM,0.509
same,relative viability,Selisistat + Pemetrexed; first compound 40 µM,0.529
same,relative viability,Serdemetan + Vorinostat; first compound 0.04 µM,0.759
same,relative viability,Serdemetan + Vorinostat; first compound 0.1265 µM,0.852
same,relative viability,Serdemetan + Vorinostat; first compound 0.4 µM,0.773
same,relative viability,Serdemetan + Vorinostat; first compound 1.265 µM,0.75
same,relative viability,Serdemetan + Vorinostat; first compound 4 µM,0.779
same,relative viability,Serdemetan + Pictilisib; first compound 0.04 µM,0.629
same,relative viability,Serdemetan + Pictilisib; first compound 0.1265 µM,0.665
same,relative viability,Serdemetan + Pictilisib; first compound 0.4 µM,0.619
same,relative viability,Serdemetan + Pictilisib; first compound 1.265 µM,0.594
same,relative viability,Serdemetan + Pictilisib; first compound 4 µM,0.611
LK-2,relative viability,Selisistat + Olaparib; first compound 0.4 µM,0.721
same,relative viability,Selisistat + Olaparib; first compound 1.265 µM,0.652
same,relative viability,Selisistat + Olaparib; first compound 4 µM,0.675
same,relative viability,Selisistat + Olaparib; first compound 12.65 µM,0.588
same,relative viability,Selisistat + Olaparib; first compound 40 µM,0.782
same,relative viability,Selisistat + Pemetrexed; first compound 0.4 µM,0.271
same,relative viability,Selisistat + Pemetrexed; first compound 1.265 µM,0.32
same,relative viability,Selisistat + Pemetrexed; first compound 4 µM,0.232
same,relative viability,Selisistat + Pemetrexed; first compound 12.65 µM,0.265
same,relative viability,Selisistat + Pemetrexed; first compound 40 µM,0.252
same,relative viability,Serdemetan + Vorinostat; first compound 0.04 µM,0.394
same,relative viability,Serdemetan + Vorinostat; first compound 0.1265 µM,0.371
same,relative viability,Serdemetan + Vorinostat; first compound 0.4 µM,0.372
same,relative viability,Serdemetan + Vorinostat; first compound 1.265 µM,0.221
same,relative viability,Serdemetan + Vorinostat; first compound 4 µM,0.461
same,relative viability,Serdemetan + Pictilisib; first compound 0.04 µM,0.479
same,relative viability,Serdemetan + Pictilisib; first compound 0.1265 µM,0.578
same,relative viability,Serdemetan + Pictilisib; first compound 0.4 µM,0.687
same,relative viability,Serdemetan + Pictilisib; first compound 1.265 µM,0.362
same,relative viability,Serdemetan + Pictilisib; first compound 4 µM,0.301
LOU-NH91,relative viability,Selisistat + Olaparib; first compound 0.4 µM,0.936
same,relative viability,Selisistat + Olaparib; first compound 1.265 µM,0.867
same,relative viability,Selisistat + Olaparib; first compound 4 µM,0.914
same,relative viability,Selisistat + Olaparib; first compound 12.65 µM,0.895
same,relative viability,Selisistat + Olaparib; first compound 40 µM,0.899
same,relative viability,Selisistat + Pemetrexed; first compound 0.4 µM,0.329
same,relative viability,Selisistat + Pemetrexed; first compound 1.265 µM,0.339
same,relative viability,Selisistat + Pemetrexed; first compound 4 µM,0.42
same,relative viability,Selisistat + Pemetrexed; first compound 12.65 µM,0.395
same,relative viability,Selisistat + Pemetrexed; first compound 40 µM,0.459
same,relative viability,Serdemetan + Vorinostat; first compound 0.04 µM,0.954
same,relative viability,Serdemetan + Vorinostat; first compound 0.1265 µM,0.954
same,relative viability,Serdemetan + Vorinostat; first compound 4 µM,0.935
same,relative viability,Serdemetan + Pictilisib; first compound 0.04 µM,0.519
same,relative viability,Serdemetan + Pictilisib; first compound 0.1265 µM,0.484
same,relative viability,Serdemetan + Pictilisib; first compound 1.265 µM,0.433
same,relative viability,Serdemetan + Pictilisib; first compound 4 µM,0.496

# — the supplement of paper PMC10307832
